What is called IC50 is the concentration that inhibits the measured activity by half.

16 compounds from ChEMBL document CHEMBL3877297, “Chemical exploration of 4-(4-fluorobenzyl)piperidine fragment for the development of new tyrosinase inhibitors” (Eur J Med Chem, 2017) can be followed below.

The structures appear in SMILES notation. The source made the active and inactive calls. The calls are words filed in the database; no cut-off is given here.

In assay [1] the target is T1, Mushroom tyrosinase (Agaricus bisporus, UniProt O42713+Q00024+C7FF04+C7FF05). Put plainly: Inhibition of mushroom tyrosinase monophenolase activity using L-tyrosine as substrate measured after 30 mins.
Assay [2] deals with T1, Mushroom tyrosinase. In words: Inhibition of mushroom tyrosinase diphenolase activity using L-DOPA as substrate measured after 5 mins.
For assay [3], the target named is T1, Mushroom tyrosinase. Put plainly: Inhibition of mushroom tyrosinase assessed as reduction in formation of dopachrome using L-DOPA as substrate.
Assay [4] deals with T2, Mushroom tyrosinase (Agaricus bisporus) (UniProt O42713+Q00024+C7FF04+C7FF05). In words: Non-competitive inhibition of mushroom tyrosinase diphenolase activity at 4 to 16 uM using varying levels of L-DOPA as substrate by Lineweaver-Burk plot analysis.
Assay [5] addresses T2, Mushroom tyrosinase (Agaricus bisporus). Put plainly: Potency index, ratio of 3-(4-benzylpiperidin-1-yl)-1-(1H-indol-3-yl)propan-1-one IC50 to compound IC50 for mushroom tyrosinase diphenolase activity.
The target is the same in assay [6]. Put plainly: Potency index, ratio of 3-(4-benzylpiperidin-1-yl)-1-(1H-indol-3-yl)propan-1-one IC50 to compound IC50 for mushroom tyrosinase monophenolase activity.
Assay [7] shares this target. In words: Mixed-type inhibition of mushroom tyrosinase diphenolase activity at 4 to 16 uM using varying levels of L-DOPA as substrate by Lineweaver-Burk plot analysis.
Assay [8] has the same target. Put plainly: Non-competitive inhibition of mushroom tyrosinase diphenolase activity at 25 to 100 uM using varying levels of L-DOPA as substrate by Lineweaver-Burk plot analysis.

For the compound `O=C(CCN1CCC(Cc2ccc(F)cc2)CC1)Nc1cc[nH]n1`, the values for the IC50 in assay [1] and in assay [2] were 5.87 µM and 39.58 µM, respectively.
The like results for `O=C(CCN1CCC(Cc2ccccc2)CC1)c1c[nH]c2ccccc12` were, in that order, 175 µM and 252 µM.
In the case of `O=C(CCN1CCC(Cc2ccc(F)cc2)CC1)n1cnc2ccccc21`, the IC50 was found to be 113.34 µM in assay [1] and 159.24 µM in assay [2].
On to `COc1cccc2c1c(C(=O)C(=O)Nc1cn[nH]n1)cn2Cc1ccc(F)cc1`, for which the IC50 in assay [3] came out at 372 µM.
In the case of `COc1ccc2c(C(=O)CCN3CCC(Cc4ccccc4)CC3)c[nH]c2c1`, the results for the IC50 in assay [1] and in assay [2] were 67.25 µM and 168.55 µM, respectively.
For `O=C(CCN1CCC(Cc2ccc(F)cc2)CC1)c1c[nH]c2ccccc12`, the results for the IC50 in assay [1] and in assay [2] were 9.45 µM and 8.82 µM, respectively. The inhibition entry in assay [4] is “Active”. In assay [5], the Ratio IC50 was below 35.
Turning to `Cc1cc(NC(=O)CCN2CCC(Cc3ccc(F)cc3)CC2)on1`, the IC50 in assay [1] came out at 28.55 µM; in assay [2], 110.95 µM.
`COc1ccc2[nH]cc(C(=O)CCN3CCC(Cc4ccccc4)CC3)c2c1`: the IC50 in assay [1] worked out at 25.78 µM; in assay [2], 197.45 µM. In assay [6], the Ratio IC50 stood at 7.
`COc1cc2[nH]cc(C(=O)CCN3CCC(Cc4ccc(F)cc4)CC3)c2cc1OC`: the results for the half-maximal inhibitory concentration (IC50) in assay [1] and in assay [2] were 5.11 µM and 7.56 µM, respectively. The inhibition entry in assay [7] is “Active”. In addition, the Ratio IC50 in assay [5] was below 35.
Take `O=C(CCN1CCC(Cc2ccc(F)cc2)CC1)NCc1ccccc1`: the IC50 in assay [1] is 13.98 µM; in assay [2], 83 µM.
The like results for `CCN1CCC(Cc2ccc(F)cc2)CC1` were, in that order, 32.17 µM and 116 µM.
The like results for `COc1cc2[nH]cc(C(=O)CCN3CCC(Cc4ccccc4)CC3)c2cc1OC` were, in that order, 57.24 µM and 133 µM.
`O=C(CCN1CCC(Cc2ccc(F)cc2)CC1)Nc1ccccc1`: the half-maximal inhibitory concentration (IC50) in assay [1] amounted to 28.85 µM; in assay [2], 27.9 µM. In addition, the inhibition entry in assay [8] was “Active”.
On to `COc1cccc2c1c(C(=O)/C=C(\O)C(=O)O)cn2Cc1ccc(F)cc1`, for which, in assay [3], the half-maximal inhibitory concentration (IC50) was 224 µM.
Turning to `COc1ccc2[nH]cc(C(=O)CCN3CCC(Cc4ccc(F)cc4)CC3)c2c1`, the figures for the IC50 in assay [1] and in assay [2] were 7.86 µM and 14.15 µM, respectively. In addition, in assay [4], the inhibition entry was “Active”. In assay [5], the Ratio IC50 is below 35.
With `COc1ccc2c(C(=O)CCN3CCC(Cc4ccc(F)cc4)CC3)c[nH]c2c1`, the IC50 in assay [1] was found to be 9.4 µM; in assay [2], 18.03 µM. Further, the inhibition result in assay [4] is “Active”. Further, the Ratio IC50 in assay [5] is below 35.
